Earlier results as cited in US20040022740A1, “Macrolide formulations for inhalation and methods of treatment of endobronchial infections” (priority 2003, published 2004).

oral bioavailability (in humans): 10-14% | elimination into the feces (in vivo): 62-81%
Structure (SMILES): CC[C@H]1OC(=O)[C@H](C)[C@@H](O[C@H]2C[C@@](C)(OC)[C@@H](O)[C@H](C)O2)[C@H](C)[C@@H](O[C@@H]2O[C@H](C)C[C@H](N(C)C)[C@H]2O)[C@](C)(O)C[C@@H](C)[C@@H]2N[C@@H](COCCOC)O[C@H]([C@H]2C)[C@]1(C)O [dirithromycin]
